From US20080260682A1, “Polyethylene glycol colonic purgative composition” (Salix Pharmaceuticals, Inc., priority 2005, published 2008) come the findings set out here.

For the data set, the system named is normal healthy subjects. The conditions noted are these: in vivo.

Experimental: In addition, the safety and tolerability of the PEG 8000 was evaluated.
This study was a double-blinded, randomized, crossover study with 16 healthy male subjects. Subjects were randomly assigned to one of two dosing sequences: Sequence A (n=9) or Sequence B (n=6). For each dosing sequence there were three scheduled visits: a screening visit (Visit 0) and two treatment visits (Visits 1 and 2). […] At the beginning of day 4, the standardized diet ended and subjects were given a low fiber breakfast followed by clear liquids for the rest of the day. On day 5, patients received nothing by mouth (NPO) after the administration of the test materials.
A baseline period measurement period began at 6 p.m. on day 2 and lasted 48 hours. During the baseline period, all bowel movements were collected, recorded, and assessed for consistency and weight. At 6 p.m. on day 4, the test article administration began. […] In both dosing sequences, Visit I was followed by a two-week washout period before subjects crossed over to begin visit 2. During the observation period of test article administration, all bowel movements were collected, recorded, and assessed for consistency and weight. The observation period of test article administration began when the test article was administered and continued until 11 a.m. on day 5.
Subjects drank another 5 doses in the same manner beginning at 6:00 a.m. on day 5.

For polyethylene glycol 8000 [PEG 8000], the “serious events, severe events, deaths” value is “no serious events, no severe events, and no deaths”.
